Assay results: publication PMC3914206

What was measured:
Type in all cases: binding
[1] = molecular target: T1, panel of 442 kinases (Homo sapiens, UniProt Q9UK32); conditions: compound concentration 10 µM; for % Ctrl, RSK4(Kin.Dom.1-N-terminal): kinase RSK4(Kin.Dom.1-N-terminal); for % Ctrl, RSK4(Kin.Dom.2-C-terminal): kinase RSK4(Kin.Dom.2-C-terminal)
T1 construct: purchased KINOMEscan
Text: (§1) We assessed the selectivity of members of this scaffold using the KINOMEscan methodology across a near comprehensive panel of 442 kinases [[18,27]].

[2] = molecular target: T2, panel of 442 kinases (Homo sapiens, UniProt Q15303); conditions: Compound Concentration 10 µM
T2 construct: purchased KINOMEscan
Text: as §1

[3] = molecular target: T3, panel of 442 kinases (Homo sapiens, UniProt P28482); conditions: Compound Concentration 10 µM
T3 construct: purchased KINOMEscan
Text: as §1

[4] = molecular target: T4, panel of 442 kinases (Homo sapiens, UniProt Q9P289); conditions: Compound Concentration 10 µM
T4 construct: purchased KINOMEscan
Text: as §1

T4 sequence (Q9P289 whole entry): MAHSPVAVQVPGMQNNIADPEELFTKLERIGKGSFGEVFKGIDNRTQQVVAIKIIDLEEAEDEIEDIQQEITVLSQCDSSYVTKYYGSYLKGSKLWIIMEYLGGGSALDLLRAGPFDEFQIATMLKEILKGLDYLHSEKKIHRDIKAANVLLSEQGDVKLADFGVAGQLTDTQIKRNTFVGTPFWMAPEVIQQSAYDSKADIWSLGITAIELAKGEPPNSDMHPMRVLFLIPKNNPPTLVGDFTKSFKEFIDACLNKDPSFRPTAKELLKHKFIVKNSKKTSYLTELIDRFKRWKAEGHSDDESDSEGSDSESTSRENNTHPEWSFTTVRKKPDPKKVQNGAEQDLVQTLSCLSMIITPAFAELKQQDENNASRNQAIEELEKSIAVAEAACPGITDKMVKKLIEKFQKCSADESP
T1 sequence (Q9UK32 whole entry): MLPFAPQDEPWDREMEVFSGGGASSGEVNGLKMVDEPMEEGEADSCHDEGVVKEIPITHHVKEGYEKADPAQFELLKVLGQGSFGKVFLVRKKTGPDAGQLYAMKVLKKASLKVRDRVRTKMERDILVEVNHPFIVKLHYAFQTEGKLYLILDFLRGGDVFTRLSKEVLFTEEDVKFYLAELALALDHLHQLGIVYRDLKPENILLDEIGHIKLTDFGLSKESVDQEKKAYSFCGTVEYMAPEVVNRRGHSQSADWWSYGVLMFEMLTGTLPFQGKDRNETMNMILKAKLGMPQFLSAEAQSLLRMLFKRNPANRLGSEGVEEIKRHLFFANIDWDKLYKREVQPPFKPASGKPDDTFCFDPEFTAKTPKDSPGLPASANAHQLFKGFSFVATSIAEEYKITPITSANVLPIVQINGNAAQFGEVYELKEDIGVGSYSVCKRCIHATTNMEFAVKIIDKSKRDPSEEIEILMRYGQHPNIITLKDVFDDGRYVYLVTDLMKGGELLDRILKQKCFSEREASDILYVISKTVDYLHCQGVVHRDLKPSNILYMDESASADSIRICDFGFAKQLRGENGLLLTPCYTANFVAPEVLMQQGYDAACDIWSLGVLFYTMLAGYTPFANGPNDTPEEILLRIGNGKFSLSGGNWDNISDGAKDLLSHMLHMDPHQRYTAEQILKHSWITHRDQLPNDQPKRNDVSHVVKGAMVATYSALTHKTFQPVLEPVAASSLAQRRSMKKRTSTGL
T2 sequence (Q15303 26-1308): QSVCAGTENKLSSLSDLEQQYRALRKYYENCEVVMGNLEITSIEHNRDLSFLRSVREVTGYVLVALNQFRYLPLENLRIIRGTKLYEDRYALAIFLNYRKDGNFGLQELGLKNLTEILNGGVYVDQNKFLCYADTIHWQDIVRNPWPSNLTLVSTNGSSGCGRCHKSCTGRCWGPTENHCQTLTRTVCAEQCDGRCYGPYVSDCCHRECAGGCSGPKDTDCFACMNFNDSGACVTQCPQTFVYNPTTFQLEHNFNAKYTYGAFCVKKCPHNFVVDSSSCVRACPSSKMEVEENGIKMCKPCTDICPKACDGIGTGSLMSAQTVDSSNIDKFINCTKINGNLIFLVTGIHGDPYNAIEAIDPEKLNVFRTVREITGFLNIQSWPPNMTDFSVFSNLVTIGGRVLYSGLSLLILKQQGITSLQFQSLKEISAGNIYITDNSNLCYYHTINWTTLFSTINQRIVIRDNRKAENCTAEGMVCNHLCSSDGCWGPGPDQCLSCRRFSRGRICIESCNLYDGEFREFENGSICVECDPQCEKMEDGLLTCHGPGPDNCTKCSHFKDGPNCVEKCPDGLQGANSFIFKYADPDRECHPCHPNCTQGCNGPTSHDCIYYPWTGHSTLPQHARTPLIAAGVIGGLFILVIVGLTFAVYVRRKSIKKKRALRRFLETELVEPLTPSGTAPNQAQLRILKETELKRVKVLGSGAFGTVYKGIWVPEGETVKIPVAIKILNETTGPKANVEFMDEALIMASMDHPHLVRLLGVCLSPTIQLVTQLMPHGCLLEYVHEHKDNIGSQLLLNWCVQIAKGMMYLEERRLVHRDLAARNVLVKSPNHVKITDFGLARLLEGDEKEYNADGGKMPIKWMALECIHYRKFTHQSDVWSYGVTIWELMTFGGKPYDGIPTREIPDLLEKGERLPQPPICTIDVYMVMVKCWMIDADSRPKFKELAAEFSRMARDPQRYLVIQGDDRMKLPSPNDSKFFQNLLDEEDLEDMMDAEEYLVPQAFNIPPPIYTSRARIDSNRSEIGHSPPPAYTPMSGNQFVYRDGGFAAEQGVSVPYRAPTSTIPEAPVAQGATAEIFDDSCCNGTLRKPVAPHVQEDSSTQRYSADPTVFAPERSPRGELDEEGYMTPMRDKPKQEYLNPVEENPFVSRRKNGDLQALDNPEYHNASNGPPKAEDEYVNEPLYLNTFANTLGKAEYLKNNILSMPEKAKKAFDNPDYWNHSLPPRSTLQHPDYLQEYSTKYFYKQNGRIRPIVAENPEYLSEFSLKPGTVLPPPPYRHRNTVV
T3 sequence (P28482 whole entry): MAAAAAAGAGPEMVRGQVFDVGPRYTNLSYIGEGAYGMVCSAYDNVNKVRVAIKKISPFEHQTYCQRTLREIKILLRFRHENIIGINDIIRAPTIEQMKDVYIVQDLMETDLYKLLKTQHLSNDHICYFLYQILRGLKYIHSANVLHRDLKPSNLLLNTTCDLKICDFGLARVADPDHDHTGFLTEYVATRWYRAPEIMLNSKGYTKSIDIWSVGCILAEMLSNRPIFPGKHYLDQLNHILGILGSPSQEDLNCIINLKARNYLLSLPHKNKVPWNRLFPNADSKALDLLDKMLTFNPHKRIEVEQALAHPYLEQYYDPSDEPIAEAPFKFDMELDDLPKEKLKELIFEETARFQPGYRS

Structure (SMILES)	% Ctrl, RSK4(Kin.Dom.1-N-terminal) [1] [% Ctrl]	% Ctrl, RSK4(Kin.Dom.2-C-terminal) [1] [% Ctrl]	KINOMEscan: ERBB4 [2]	KINOMEscan: ERK2 [3]	KINOMEscan: MST4 [4]
CCOc1cc(C(=O)N2CCC(N3CCN(C)CC3)CC2)ccc1Nc1ncc2c(n1)N(C1CCCC1)c1ccccc1C(=O)N2C [Compound 26]	100	98	100	100	100
COc1cc(C(=O)N2CCC(N3CCN(C)CC3)CC2)ccc1Nc1ncc2c(n1)N(C1CCCC1)c1ccccc1C(=O)N2C [Compound 25, 11-cyclopentyl-2-((2-methoxy-4-(4-(4-methylpiperazin-1-yl)piperidine-1-carbonyl)phenyl)amino)-5-methyl-5H-benzo[e]pyrimido[5,4-b][1,4]diazepin-6(11H)-one]	100	93	100	98	100
COc1cc(C(=O)N2CCC(N3CCN(C)CC3)CC2)ccc1Nc1ncc2c(n1)N1CCc3cccc(c31)C(=O)N2C [Compound 24]	100	5.2	–	88	–
COc1cc(C(=O)N2CCC(N3CCN(C)CC3)CC2)ccc1Nc1ncc2c(n1)N(C)c1ccccc1C(=O)N2C [15 (LRRK2-IN-1)]	92	2.2	100	85	95
